Results reported in PubChem BioAssay (NCI).
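Method: 48-hour compound exposure of cells in 96-well plates, five concentrations, linear interpolation of endpoints. GI50 marks 50% less growth. TGI denotes the concentration required for complete inhibition of growth.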

Columns and labels:
Experiment in all cases: growth of human tumour cells (NCI), 48 h
SR leukemia = test system: SR leukemia
IGROV1 ovarian = test system: IGROV1 ovarian
MDA-MB-231 breast = test system: MDA-MB-231 breast
HCT-116 colon = test system: HCT-116 colon
NCI-H226 lung = test system: NCI-H226 lung
K-562 leukemia = test system: K-562 leukemia
PC-3 prostate = test system: PC-3 prostate
HOP-92 NSCLC = test system: HOP-92 NSCLC
A549 NSCLC = test system: A549 NSCLC
BT-549 breast = test system: BT-549 breast
TK-10 renal = test system: TK-10 renal
SK-MEL-2 melanoma = test system: SK-MEL-2 melanoma
UACC-62 melanoma = test system: UACC-62 melanoma
SF-539 CNS = test system: SF-539 CNS
OVCAR-4 ovarian = test system: OVCAR-4 ovarian
NCI/ADR-RES ovarian = test system: NCI/ADR-RES ovarian
NCI-H460 lung = test system: NCI-H460 lung
HCC-2998 colon = test system: HCC-2998 colon
MDA-MB-435 = test system: MDA-MB-435
SN12C renal = test system: SN12C renal
SW-620 colon = test system: SW-620 colon
UO-31 renal = test system: UO-31 renal
OVCAR-8 ovarian = test system: OVCAR-8 ovarian
U251 CNS = test system: U251 CNS
SF-295 CNS = test system: SF-295 CNS
KM12 colon = test system: KM12 colon
OVCAR-3 ovarian = test system: OVCAR-3 ovarian
SF-268 CNS = test system: SF-268 CNS
ACHN renal = test system: ACHN renal
HS 578T breast = test system: HS 578T breast
DU-145 prostate = test system: DU-145 prostate
COLO 205 colon = test system: COLO 205 colon
T-47D breast = test system: T-47D breast
EKVX NSCLC = test system: EKVX NSCLC
OVCAR-5 ovarian = test system: OVCAR-5 ovarian
UACC-257 melanoma = test system: UACC-257 melanoma
NCI-H522 lung = test system: NCI-H522 lung
RXF 393 renal = test system: RXF 393 renal
SK-MEL-28 melanoma = test system: SK-MEL-28 melanoma
MALME-3M melanoma = test system: MALME-3M melanoma
RPMI-8226 leukemia = test system: RPMI-8226 leukemia
SK-MEL-5 melanoma = test system: SK-MEL-5 melanoma
NCI-H23 lung = test system: NCI-H23 lung
SNB-19 CNS = test system: SNB-19 CNS
HOP-62 NSCLC = test system: HOP-62 NSCLC
786-0 renal = test system: 786-0 renal
SNB-75 CNS = test system: SNB-75 CNS
SK-OV-3 ovarian = test system: SK-OV-3 ovarian
CAKI-1 renal = test system: CAKI-1 renal

COC(=O)/C=C1/SC(=Nc2ccc(F)cc2)N(CCc2c[nH]c3ccc(O)cc23)C1=O
GI50 (SR leukemia): 2.08 µM | TGI (SR leukemia): > 100 µM | GI50 (IGROV1 ovarian): 5.79 µM | TGI (IGROV1 ovarian): > 100 µM | GI50 (MDA-MB-231 breast): 14.8 µM | TGI (MDA-MB-231 breast): > 100 µM | GI50 (HCT-116 colon): 4.89 µM | TGI (HCT-116 colon): > 100 µM | GI50 (NCI-H226 lung): 4.17 µM | TGI (NCI-H226 lung): 47.4 µM | GI50 (K-562 leukemia): > 100 µM | TGI (K-562 leukemia): > 100 µM | GI50 (PC-3 prostate): 7.05 µM | TGI (PC-3 prostate): > 100 µM | GI50 (HOP-92 NSCLC): 6.21 µM | TGI (HOP-92 NSCLC): 29.6 µM | GI50 (A549 NSCLC): 41.2 µM | TGI (A549 NSCLC): > 100 µM | GI50 (BT-549 breast): 3.75 µM | TGI (BT-549 breast): 38.4 µM | GI50 (TK-10 renal): 14 µM | TGI (TK-10 renal): 58.7 µM | GI50 (SK-MEL-2 melanoma): 2.76 µM | TGI (SK-MEL-2 melanoma): 9.06 µM | GI50 (UACC-62 melanoma): 4.75 µM | TGI (UACC-62 melanoma): 27.7 µM | GI50 (SF-539 CNS): 6.42 µM | TGI (SF-539 CNS): 26.1 µM | GI50 (OVCAR-4 ovarian): 3.37 µM | TGI (OVCAR-4 ovarian): 22.7 µM | GI50 (NCI/ADR-RES ovarian): 4.69 µM | TGI (NCI/ADR-RES ovarian): > 100 µM | GI50 (NCI-H460 lung): 4.71 µM | TGI (NCI-H460 lung): > 100 µM | GI50 (HCC-2998 colon): > 100 µM | TGI (HCC-2998 colon): > 100 µM | GI50 (MDA-MB-435): 3.79 µM | TGI (MDA-MB-435): > 100 µM | GI50 (SN12C renal): 8.44 µM | TGI (SN12C renal): > 100 µM | GI50 (SW-620 colon): > 100 µM | TGI (SW-620 colon): > 100 µM | GI50 (UO-31 renal): 7.07 µM | TGI (UO-31 renal): > 100 µM | GI50 (OVCAR-8 ovarian): 4.45 µM | TGI (OVCAR-8 ovarian): 67.5 µM | GI50 (U251 CNS): 4.32 µM | TGI (U251 CNS): 27.3 µM | GI50 (SF-295 CNS): 12 µM | TGI (SF-295 CNS): 41.3 µM | GI50 (KM12 colon): 5.56 µM | TGI (KM12 colon): > 100 µM | GI50 (OVCAR-3 ovarian): 4.41 µM | TGI (OVCAR-3 ovarian): > 100 µM | GI50 (SF-268 CNS): 5.96 µM | TGI (SF-268 CNS): 42.7 µM | GI50 (ACHN renal): 7.29 µM | TGI (ACHN renal): > 100 µM | GI50 (HS 578T breast): 4.28 µM | TGI (HS 578T breast): 35.7 µM | GI50 (DU-145 prostate): 5.92 µM | TGI (DU-145 prostate): > 100 µM | GI50 (COLO 205 colon): > 100 µM | TGI (COLO 205 colon): > 100 µM | GI50 (T-47D breast): 4.4 µM | TGI (T-47D breast): > 100 µM | GI50 (EKVX NSCLC): 20.7 µM | TGI (EKVX NSCLC): > 100 µM | GI50 (OVCAR-5 ovarian): > 100 µM | TGI (OVCAR-5 ovarian): > 100 µM | GI50 (UACC-257 melanoma): 9.82 µM | TGI (UACC-257 melanoma): > 100 µM | GI50 (NCI-H522 lung): 3.85 µM | TGI (NCI-H522 lung): > 100 µM | GI50 (RXF 393 renal): 2.23 µM | TGI (RXF 393 renal): 8.98 µM | GI50 (SK-MEL-28 melanoma): 7.34 µM | TGI (SK-MEL-28 melanoma): > 100 µM | GI50 (MALME-3M melanoma): 12.9 µM | TGI (MALME-3M melanoma): > 100 µM | GI50 (RPMI-8226 leukemia): 3.01 µM | TGI (RPMI-8226 leukemia): > 100 µM | GI50 (SK-MEL-5 melanoma): 11.1 µM | TGI (SK-MEL-5 melanoma): 77.3 µM | GI50 (NCI-H23 lung): 7.49 µM | TGI (NCI-H23 lung): > 100 µM | GI50 (SNB-19 CNS): 9.28 µM | TGI (SNB-19 CNS): 51.9 µM | GI50 (HOP-62 NSCLC): 3.83 µM | TGI (HOP-62 NSCLC): 19.7 µM | GI50 (786-0 renal): 6.85 µM | TGI (786-0 renal): 40.1 µM | GI50 (SNB-75 CNS): 4.01 µM | TGI (SNB-75 CNS): 18.3 µM | GI50 (SK-OV-3 ovarian): 24.4 µM | TGI (SK-OV-3 ovarian): > 100 µM | GI50 (CAKI-1 renal): 24.9 µM | TGI (CAKI-1 renal): > 100 µM
